For 18 compounds, IC50 and melting point results are on record in patent US7253192B2, “Phenyl derivatives comprising an acetylene group” (Hoffmann-La Roche Inc., priority 2004, dated 2007).

Molecules are shown by their SMILES.

In one data set the target is T1, PPARα (Homo sapiens, UniProt Q07869).
T1 construct: PPARα (aa 167 to 469); made in house; host or cells: E. coli BL21 (pLysS)
T1 sequence (Q07869 167-468 limits assumed): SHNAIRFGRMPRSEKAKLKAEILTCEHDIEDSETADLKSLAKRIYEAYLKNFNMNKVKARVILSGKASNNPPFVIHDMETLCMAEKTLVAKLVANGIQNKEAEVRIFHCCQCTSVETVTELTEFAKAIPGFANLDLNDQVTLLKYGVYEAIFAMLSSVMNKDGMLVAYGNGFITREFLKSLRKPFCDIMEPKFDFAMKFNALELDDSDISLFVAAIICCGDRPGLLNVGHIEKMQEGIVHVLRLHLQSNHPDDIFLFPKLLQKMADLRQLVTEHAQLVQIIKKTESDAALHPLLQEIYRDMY
Kind of data set: Radioligand binding assay (SPA), PPARα receptor binding. To be noted: GST-PPARα-LBD fusion protein, scintillation proximity radioligand binding. The text has this:
(§1) Full-length cDNA clones for humans PPARδ and PPARα and mouse PPARγ were obtained by RT-PCR from human adipose and mouse liver cRNA, respectively, cloned into plasmid vectors and verified by DNA sequencing. Bacterial and mammalian expression vectors were constructed to produce glutathione-s-transferase (GST) and Gal4 DNA binding domain proteins fused to the ligand binding domains (LBD) of PPARδ (aa 139 to 442), PPARγ (aa 174 to 476) and PPARα (aa 167 to 469). To accomplish this, the portions of the cloned sequences encoding the LBDs were amplified from the full-length clones by PCR and then subcloned into the plasmid vectors. Final clones were verified by DNA sequence analysis.
(§2) Induction, expression, and purification of GST-LBD fusion proteins were performed in E. coli strain BL21 (pLysS) cells by standard methods (Ref: Current Protocols in Molecular Biology, Wiley Press, edited by Ausubel et al.).
PPARα receptor binding was assayed in TKE50 (50 mM Tris-HCl, pH 8, 50 mM KCl, 2 mM EDTA, 0.1 mg/ml fatty acid-free BSA and 10 mM DTT). For each 96 well reaction an 140 ng equivalent of GST-PPARα-LBD fusion protein was bound to 10 μg SPA beads (PharmaciaAmersham) in a final volume of 50 μl by shaking. The resulting slurry was incubated for 1 h at RT and centrifuged for 2 min at 1300 g. The supernatant containing unbound protein was removed and the semidry pellet containing the receptor-coated beads was resolved in 50 μl of TKE. For radioligand binding e.g. 10000 dpm of 2(S)-(2-benzoyl-phenylamino)-3-{4-[1,1-ditritio-2-(5-methyl-2-phenyl-oxazol-4-yl)-ethoxy]-phenyl}-propionic acid or 2,3-ditritio-2(S)-methoxy-3-{4-[2-(5-methyl-2-phenyl-oxazol-4-yl)-ethoxy]-benzo [b]thiophen-7-yl}-propionic acid in 50 ul were added, the reaction incubated at RT for 1 h and scintillation proximity counting performed. All binding assays were performed in 96 well plates and the amount of bound ligand measured on a Packard TopCount using OptiPlates (Packard). Nonspecific binding was determined in the presence of 10^−4 M unlabelled compound. […]
(In general: SPA uses beads or plates that emit light when radiolabelled molecules are held near them.)

In another data set the target is T2, PPARγ (Mus musculus, UniProt P37238).
T2 construct: PPARγ (aa 174 to 476); made in house; host or cells: E. coli BL21 (pLysS)
T2 sequence (P37238 204-505): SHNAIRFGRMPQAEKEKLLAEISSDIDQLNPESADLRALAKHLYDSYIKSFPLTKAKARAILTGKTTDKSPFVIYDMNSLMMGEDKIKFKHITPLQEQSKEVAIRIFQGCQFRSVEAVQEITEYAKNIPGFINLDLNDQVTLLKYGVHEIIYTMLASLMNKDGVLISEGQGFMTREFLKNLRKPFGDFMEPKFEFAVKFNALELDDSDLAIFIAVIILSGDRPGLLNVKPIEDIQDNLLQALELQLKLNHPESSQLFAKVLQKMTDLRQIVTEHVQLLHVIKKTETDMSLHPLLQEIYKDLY
Briefly: Radioligand binding assay (SPA), PPARγ receptor binding. The conditions noted are these: GST-PPARγ-LBD fusion protein, scintillation proximity radioligand binding.
Description: as §1, §2
PPARγ receptor binding was assayed in TKE50 (50 mM Tris-HCl, pH 8, 50 mM KCl, 2 mM EDTA, 0.1 mg/ml fatty acid-free BSA and 10 mM DTT). For each 96 well reaction an 140 ng equivalent of GST-PPARγ-LBD fusion protein was bound to 10 μg SPA beads (PharmaciaAmersham) in a final volume of 50 μl by shaking. The resulting slurry was incubated for 1 h at RT and centrifuged for 2 min at 1300 g. The supernatant containing unbound protein was removed and the semidry pellet containing the receptor-coated beads was resolved in 50 ul of TKE. For radioligand binding e.g. 10000 dpm 2(S)-(2-benzoyl-phenylamino)-3-{4-[1,1-ditritio-2-(5-methyl-2-phenyl-oxazol-4-yl)-ethoxy]-phenyl}-propionic acid in 50 μl were added, the reaction incubated at RT for 1 h and scintillation proximity counting performed. All binding assays were performed in 96 well plates and the amount of bound ligand measured on a Packard TopCount using OptiPlates (Packard). Nonspecific binding was determined in the presence of 10^−4 M unlabelled compound. Dose response curves were done in triplicates within a range of concentration from 10^−10 M to 10^−4 M.

In a further data set the target is T3, PPARδ (Homo sapiens, UniProt Q03181).
T3 construct: PPARδ (aa 139 to 442); made in house; host or cells: E. coli BL21 (pLysS)
T3 sequence (Q03181 139-441 limits assumed): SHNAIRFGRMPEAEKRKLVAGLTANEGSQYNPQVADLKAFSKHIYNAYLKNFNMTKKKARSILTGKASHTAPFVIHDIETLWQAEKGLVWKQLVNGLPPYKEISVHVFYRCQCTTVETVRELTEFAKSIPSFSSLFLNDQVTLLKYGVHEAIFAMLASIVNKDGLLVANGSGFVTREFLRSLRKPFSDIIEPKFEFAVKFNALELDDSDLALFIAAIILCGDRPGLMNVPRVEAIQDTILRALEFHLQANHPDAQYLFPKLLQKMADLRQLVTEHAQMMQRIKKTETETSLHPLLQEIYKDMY
Kind of data set: Radioligand binding assay (SPA), PPARδ receptor binding. The conditions noted are these: GST-PPARδ-LBD fusion protein, scintillation proximity radioligand binding.
Description: as §1, §2
PPARδ receptor binding was assayed in HNM10 (50 mM Hepes, pH 7.4, 10 mM NaCl, 5 mM MgCl2, 0.15 mg/ml fatty acid-free BSA and 15 mM DTT). For each 96 well reaction a 500 ng equivalent of GST-PPARδ-LBD fusion protein and radioligand, e.g. 20000 dpm {2-methyl-4-[4-methyl-2-(4-trifluoromethyl-phenyl)-thiazol-5-yl-ditritiomethylsulfanyl]-phenoxy}-acetic acid, was bound to 10 μg SPA beads (PharmaciaAmersham) in a final volume of 50 μl by shaking. The resulting slurry was incubated for 1 h at RT and centrifuged for 2 min at 1300 g. The supernatant containing unbound protein was removed and the semidry pellet containing the receptor-coated beads was resuspended in 50 μl of HNM. Radioligand was added and the reaction incubated at RT for 1 h and scintillation proximity counting performed in the presence of test compounds was determined. All binding assays were performed in 96 well plates and the amount of bound ligand was measured on a Packard TopCount using OptiPlates (Packard). Dose response curves were done in triplicates within a range of concentration from 10^−10 M to 10^−4 M.

One may read the IC50 as the concentration that inhibits the measured activity by half. A low value points to greater potency in that assay. As usually defined, the melting point is the temperature of the solid-liquid transition. On to `Cc1cc(SCCCC#Cc2ccc(OC(F)(F)F)cc2)ccc1OCC(=O)O` [Example 4, {2-Methyl-4-[5-(4-trifluoromethoxy-phenyl)-pent-4-ynylsulfanyl]-phenoxy}-acetic acid], for which the melting point was 94 to 95 °C. In addition, at PPARα, the IC50 came to 14 nM. This compound also gave an IC50 at PPARγ of more than 10 µM. In addition, the IC50 at PPARδ was 39 nM.

With `Cc1cc(SCC#Cc2ccc(C(F)(F)F)cc2)ccc1OCC(=O)O` [Example 5, {2-Methyl-4-[3-(4-trifluoromethyl-phenyl)-prop-2-ynylsulfanyl]-phenoxy}-acetic acid], the melting point is 130 to 131 °C.

In turn, `Cc1cc(SCC#Cc2cccc(C(F)(F)F)c2)ccc1OCC(=O)O` [Example 6, {2-Methyl-4-[3-(3-trifluoromethyl-phenyl)-prop-2-ynylsulfanyl]-phenoxy}-acetic acid] registered a melting point of 81 to 82 °C.

Compound `Cc1cc(SCC#Cc2ccccc2C(F)(F)F)ccc1OCC(=O)O` [Example 7, {2-Methyl-4-[3-(2-trifluoromethyl-phenyl)-prop-2-ynylsulfanyl]-phenoxy}-acetic acid] showed a melting point of 95 to 97 °C.

As to `Cc1cc(SCC#Cc2ccc(Cl)cc2)ccc1OCC(=O)O` [Example 8, {4-[3-(4-Chloro-phenyl)-prop-2-ynylsulfanyl]-2-methyl-phenoxy}-acetic acid], the melting point was 106 to 108 °C.

With `COc1ccc(C#CCSc2ccc(OCC(=O)O)c(C)c2)cc1` [Example 9, {4-[3-(4-Methoxy-phenyl)-prop-2-ynylsulfanyl]-2-methyl-phenoxy}-acetic acid], the melting point is 143 to 144 °C.

As for `Cc1cc(SCC#Cc2ccccc2)ccc1OCC(=O)O` [Example 10, [2-Methyl-4-(3-phenyl-prop-2-ynylsulfanyl)-phenoxy]-acetic acid], the melting point fell in the range of 90 to 92 °C.

In the case of `Cc1cc(SCCC#Cc2ccc(C(F)(F)F)cc2)ccc1OCC(=O)O` [Example 12, {2-Methyl-4-[4-(4-trifluoromethyl-phenyl)-but-3-ynylsulfanyl]-phenoxy}-acetic acid], the melting point fell in the range of 129 to 130 °C.

In the case of `Cc1cc(OCCCC#Cc2ccc(OC(F)(F)F)cc2)ccc1OC(C)(C)C(=O)O` [Example 13, 2-Methyl-2-{2-methyl-4-[5-(4-trifluoromethoxy-phenyl)-pent-4-ynyloxy]-phenoxy}-propionic acid], the melting point was 90 to 91 °C (dec.). Moreover, on PPARα, the IC50 came to 21 nM. This compound also yielded an IC50 on PPARγ of more than 10 µM. At PPARδ, this compound showed an IC50 of 120 nM.

For the compound `Cc1cc(OCCCC#Cc2ccc(C(F)(F)F)cc2)ccc1OC(C)(C)C(=O)O` [Example 14, 2-Methyl-2-{2-methyl-4-[5-(4-trifluoromethyl-phenyl)-pent-4-ynyloxy]-phenoxy}-propionic acid], the melting point was 114 to 115 °C (dec.).

Take `Cc1cc(OCCCC#Cc2ccc(Cl)cc2)ccc1OC(C)(C)C(=O)O` [Example 15, 2-{4-[5-(4-Chloro-phenyl)-pent-4-ynyloxy]-2-methyl-phenoxy}-2-methyl-propionic acid]: the melting point is 119 to 120 °C (dec.).

Consider `Cc1cc(OCCC#Cc2ccc(Cl)cc2)ccc1OC(C)(C)C(=O)O` [Example 18, 2-{4-[4-(4-Chloro-phenyl)-but-3-ynyloxy]-2-methyl-phenoxy}-2-methyl-propionic acid], for which the melting point was 68 to 69 °C (dec.).

The compound `Cc1cc(OCCCC#Cc2ccc(OC(F)(F)F)cc2)ccc1OCC(=O)O` [Example 20, {2-Methyl-4-[5-(4-trifluoromethoxy-phenyl)-pent-4-ynyloxy]-phenoxy}-acetic acid] returned a melting point of 124.6 to 126.7 °C.

Take `Cc1cc(OCCCC#Cc2ccc(Cl)c(F)c2)ccc1OC(C)(C)C(=O)O` [Example 27, 2-{4-[5-(4-Chloro-3-fluoro-phenyl)-pent-4-ynyloxy]-2-methyl-phenoxy}-2-methyl-propionic acid]: the melting point was 106 to 107 °C (dec.).

Take `Cc1cc(OCCCC#Cc2cnc(C(F)(F)F)nc2)ccc1OC(C)(C)C(=O)O` [Example 28, 2-Methyl-2-{2-methyl-4-[5-(2-trifluoromethyl-pyrimidin-5-yl)-pent-4-ynyloxy]-phenoxy}-propionic acid]: the melting point was 95 to 97 °C (dec.).

Consider `CC(C)(Oc1ccc(CNC(=O)CCC#Cc2ccc(OC(F)(F)F)cc2)cc1)C(=O)O` [Example 29, 2-Methyl-2-(4-{[5-(4-trifluoromethoxy-phenyl)-pent-4-ynoylamino]-methyl}-phenoxy)-propionic acid], for which the melting point was 127 to 128 °C (dec.).

`CC(C)(Oc1ccc(OCCCC#Cc2ccc(OC(F)(F)F)cc2)c(F)c1)C(=O)O` [Example 32, 2-{3-Fluoro-4-[5-(4-trifluoromethoxy-phenyl)-pent-4-ynyloxy]-phenoxy}-2-methyl-propionic acid] came in with a melting point of 65.5 to 68.5 °C.

In turn, `Cc1c(OC(C)(C)C(=O)O)ccc(OCCCC#Cc2ccc(OC(F)(F)F)cc2)c1F` [Example 33, 2-{3-Fluoro-2-methyl-4-[5-(4-trifluoromethoxy-phenyl)-pent-4-ynyloxy]-phenoxy}-2-methyl-propionic acid] came in with a melting point of 116 to 118 °C.
